According to patent publication US20250339443A1, “METHOD FOR TREATING OR PREVENTING CALCIUM RELEASE-ACTIVATED CALCIUM CHANNEL OR DISCOIDIN DOMAIN RECEPTOR 2 RELATED DISORDERS OR CONDITIONS” (LumiSTAR Biotechnology, Inc., priority 2023, published 2025):

What was measured:
NRK49F cells [1] = assay: TGF-β1-induced activation of renal fibroblasts (Western blot); assay type: cell-based, rat; details: 10 μM, 24 hours
Experimental: (§1) FIG. 2A, FIG. 2B, FIG. 2C, FIG. 2D, FIG. 2E, FIG. 2F, FIG. 2G-1, and FIG. 2G-2 display how WRG-28 and Av suppress TGF-β1-induced fibroblasts activation and the differentiation of pericytes into myofibroblasts. […] Each bar represents the mean #SEM. […] The protein levels of collagen 1a1 and α-SMA were assessed using Western blot analysis under various conditions. […] Each bar represents mean±SEM. […] The images were acquired using a confocal microscope (Olympus, MPE). FIG. 2G-1 and FIG. 2G-2 display the measurement of angles between collagen fibers and the cell membrane, conducted using Image J. At least five different images from each condition were analyzed. Each bar represents mean±SEM. […]
(§2) Cell lysates were harvested in RIPA buffer (150 mM NaCl, 1 mM EGTA, 50 mM Tris pH 7.4, 10% glycerol, 1% Triton X-100, 1% sodium deoxycholate, 0.1% SDS, and protease inhibitor cocktail) and collected from culture dish with cell scrapers. […] The protein expression levels were assessed by specific primary antibodies, including antibodies against phosphotyrosine (clone 4G10; Millipore), DDR2 (R&D), α-SMA (Sigma), Collagen 1a1 (Boster), E-cadherin (BD Biosciences), SGLT2 (Proteintech), NHE1 (Novus) and β-actin (Clone C4, Millipore), followed by incubating with secondary antibodies conjugated with HRP and detected by ECL kit (Thermo Scientific). […]

CCL-226 cells = assay: TGF-β1-induced pericyte-to-myofibroblast activation (Western blot); assay type: cell-based, mouse; details: CCL-226, 10 μM, 24 hours
Experimental: as §1, §2

NRK49F cells [2] = assay: Collagen alignment assay in FITC-conjugated collagen gel; assay type: cell-based, rat; details: 10 ng/ml TGF-β1, 10 μM, 5 days
Experimental: FIG. 2A, FIG. 2B, FIG. 2C, FIG. 2D, FIG. 2E, FIG. 2F, FIG. 2G-1, and FIG. 2G-2 display how WRG-28 and Av suppress TGF-β1-induced fibroblasts activation and the differentiation of pericytes into myofibroblasts. […] Each bar represents the mean #SEM. […] The protein levels of collagen 1a1 and α-SMA were assessed using Western blot analysis under various conditions. […] Each bar represents mean±SEM. […] The images were acquired using a confocal microscope (Olympus, MPE). FIG. 2G-1 and FIG. 2G-2 display the measurement of angles between collagen fibers and the cell membrane, conducted using Image J. At least five different images from each condition were analyzed. Each bar represents mean±SEM. In all graphs, *, **, and *** represent p-value <0.05, 0.01, and 0.001, respectively. ‘ns’ denotes p-value >0.05, indicating no significant difference.
FITC-conjugated collagen was used to make collagen gel and cells were grown in the gel for 5 days. After that cells were fixed with 4% paraformaldehyde and phalloidin-TRICT was used as counterstaining in the evaluation of the cell body. The angles between fibers and cell membrane were measured by image J.
The alignment of the extracellular matrix (ECM) is a unique characteristic of myofibroblasts, altering the physical properties of the tissue microenvironment and posing a threat to tissue homeostasis during organ fibrosis. […]

[3] = system: human cardiac fibroblast (HCF); assay: TGF-β1-induced fibronectin deposition and α-SMA expression in HCF (immunofluorescence); assay type: cell-based; details: for TGF-β1-increased cell spreading area: 10 μM co-treatment; for expression of fibronectin and α-SMA induced by TGF-β1: 10 μM, immunofluorescence
Experimental: Cells were co-treated with various compounds (10 μM) and TGF-β1 for 24 hours. Following this, cell lysates were harvested, and the protein expression was assessed by Western blot analysis. FIG. 3D depicts the examination of TGF-β1-induced fibronectin deposition and α-SMA expression in HCF treated with 10 μM of DMSO, BTP2, WRG-28, or Av through immunofluorescence staining. The images were captured using a confocal microscope, the Olympus FV-1000. FIG. 3E, FIG. 3F, and FIG. 3G illustrate the assessment of CRAC channel activity in HCF, MRC5, and rat HSC-T6. These cells were pretreated with 10 μM of BTP2, WRG-28, or Av for 45 min. The evaluation included measuring the second peak of each calcium wave and the rate of entry. Each bar within the figure represents the mean value derived from 77 to 91 cells for HCF, 31 to 49 cells for MRC5, and 43 to 94 cells for HSC-T6. In all the graphs, *, **, and *** denote p-values of <0.05, 0.01, and 0.001, respectively.
In TGF-β1-induced cell differentiation, cells were seeded on a type I collagen-coated tissue culture dish and then treated with different compounds for 4 hours. Cells were then treated with 10 ng/ml TGF-β1 for another 24 hours before protein analysis or immunocytochemistry study.
Cells cultured on chamber slides were fixed with 4% paraformaldehyde for 10 minutes followed by a permeabilization step by incubating cells in 0.5% Triton X-100 in PBS for 5 minutes. Cells were then incubated in SuperBlock blocking buffer (Thermo Scientific) for 1 h at room temperature. The protein expression was detected by incubating cells with specific primary antibodies followed by incubating cells with secondary antibodies against mouse or rabbit IgG conjugated with Alexa-488 or -594 nm (Invitrogen), respectively. Hoechst 33258 (10 μg/ml) is used for nuclei staining. All images were visualized and taken by confocal microscopy (Olympus, FV-1000).
To assess the overall effects of WRG-28 and Av on TGF-1-induced fibroblast activation, human cardiac fibroblasts (HCF), human pulmonary fibroblasts (MRC5), and rat hepatic stellate cells (HSC-T6) were employed. The upregulation of α-SMA induced by TGF-β1 treatment was observed, but this effect was suppressed by the co-treatment with various compounds, including BTP2, WRG-28, and Av, across all tested cell (FIG. 3A, FIG. 3B, and FIG. 3C). The expression of fibronectin and α-SMA induced by TGF-β1 in HCF was examined, and once again, the treatment with BTP2, WRG-28, or Av suppressed this effect (FIG. 3D).

CRAC channel = CRAC channel (Homo sapiens, UniProt Q96D31); assay: CRAC channel activity / SOCE by Fura 2-AM cytosolic Ca2+ imaging in HEK293T cells; assay type: cell-based; design: endogenous in cells; host or cells: HEK293T; details: 10 μM, 1 μM thapsigargin then 2 mM Ca2+
Sequence of CRAC channel (Q96D31 whole entry): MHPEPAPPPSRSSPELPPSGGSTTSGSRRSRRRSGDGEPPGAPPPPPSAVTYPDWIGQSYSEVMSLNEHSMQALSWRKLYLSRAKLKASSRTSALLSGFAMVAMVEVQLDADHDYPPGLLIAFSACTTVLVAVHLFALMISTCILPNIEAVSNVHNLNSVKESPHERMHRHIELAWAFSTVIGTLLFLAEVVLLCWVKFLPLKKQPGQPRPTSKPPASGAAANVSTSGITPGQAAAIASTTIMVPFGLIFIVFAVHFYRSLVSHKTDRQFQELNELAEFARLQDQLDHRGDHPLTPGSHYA
Experimental: CRAC channel activity was evaluated by applying 1 μM thapsigargin (Thap.) in a calcium-free solution to deplete the endoplasmic reticulum calcium store, followed by the reintroduction of 2 mM Ca^2+ in an external solution. The concentration of cytosolic calcium ions increases as calcium flows through the CRAC channel, leading to the second peak in cytosolic calcium waves. […] Each bar represents the mean value derived from 47 to 103 cells. […] Each bar represents the mean value derived from 83 to 176 cells. […] Further analyses are presented in FIG. 1I and FIG. 1J, where the second peak of each wave and rate of entry were analyzed. Each bar represents the mean value derived from 72 to 108 cells. […] In all the graphs, each bar represents mean±SEM and *, **, and *** denote p-value <0.05, 0.01, and 0.001, respectively.
Cells were then washed and incubated with the same solution in addition to the supplement of Fura 2-AM for another 15 minutes for fully de-esterification. […] 1 μM thapsigargin was added to induce endoplasmic reticulum (ER) calcium store depletion followed by applying 2 mM calcium solution to assess the activation of calcium release-activated calcium (CRAC) channels. Cells were alternately excited at 340 and 380 nm, and images were acquired every 2 seconds. […] All the images were analyzed by using IGOR Pro software. […]

Structure (SMILES) | TGF-β1-induced upregulation of collagen 1a1 and α-SMA (NRK49F cells [1]) | TGF-β1-induced upregulation of collagen 1a1 and α-SMA in pericyte (CCL-226 cells) | TGF-β1-induced collagen alignment (NRK49F cells [2]) | TGF-β1-increased cell spreading area [3] | expression of fibronectin and α-SMA induced by TGF-β1 [3] | second peak and rate of SOCE (CRAC channel)
Cc1nnsc1C(=O)Nc1ccc(-n2nc(C(F)(F)F)cc2C(F)(F)F)cc1 [BTP2] | significantly suppressed | significantly suppressed | reduced | mitigated | suppressed | –
CCNS(=O)(=O)c1ccc(COc2ccc3nc4ccc(=O)cc-4oc3c2)cc1 [WRG-28] | significantly suppressed | significantly suppressed | reduced | mitigated | suppressed | significantly reduced
